Values of other authors, collected in PMC10145264, “Synthesis and Biological Properties of EGFR-Targeted Photosensitizer Based on Cationic Porphyrin” (Pharmaceutics, 2023).

Assays:
[1] = design: method as in PMID 24063545; settings: standard value
[2] = design: method as in doi:10.1016/j.chemphys.2006.07.040, doi:10.1007/BF03356111, doi:10.1016/j.jphotochemrev.2020.100401; settings: standard value

singlet oxygen quantum yield (ΦΔ) [1]: 0.74
fluorescence quantum yield (ΦF) [2]: 0.033
SMILES: C1=Cc2nc1c(-c1ccccc1)c1ccc([n-]1)c(-c1ccccc1)c1nc(c(-c3ccccc3)c3ccc([n-]3)c2-c2ccccc2)C=C1.[Zn+2] [ZnTPP, zinc tetraphenylporphyrin]
